Results reported in patent US20200347033A1, “MODULATORS OF THE INTEGRATED STRESS PATHWAY” (Calico Life Sciences LLC, priority 2017, published 2020).

The compounds below were run on HEK293T cells carrying the ATF4 luciferase reporter (assay: ATF4-Luc assay (in vitro model of vanishing white matter disease)). Details: Homo sapiens, HEK-293T; HEK293T cells with ATF4 5'-UTR firefly luciferase reporter; 1 μg/mL tunicamycin; 7 hours; One Glo luminescence.
Format: cell-based, human
Protocol: In order to test exemplary compounds of the invention in a cellular context, a stable VWMD cell line was first constructed. The ATF4 reporter was prepared by fusing the human full-length ATF4 5′-UTR (NCBI Accession No. BC022088.2) in front of the firefly luciferase (FLuc) coding sequence lacking the initiator methionine as described in Sidrauski et al (eLife 2013). The construct was used to produce recombinant retroviruses using standard methods and the resulting viral supernatant was used to transduce HEK293T cells, which were then subsequently selected with puromycin to generate a stable cell line.
HEK293T cells carrying the ATF4 luciferase reporter were plated on polylysine coated 384-well plates (Greiner Bio-one) at 30,000 cells per well. Cells were treated the next day with 1 μg/mL tunicamycin and 200 nM of a compound of Formula (I) for 7 hours. Luminescence was measured using One Glo (Promega) as specified by the manufacturer. Cells were maintained in DMEM with L-glutamine supplemented with 10% heat-inactivated FBS (Gibco) and Antibiotic-Antimycotic solution (Gibco).
Table 2 below summarizes the EC50 data obtained using the ATF4-Luc assay for exemplary compounds of the invention.

| Compound | EC50 [nM] |
| --- | --- |
| O=C(N[C@H]1CC[C@H](N2CCN(c3ccc(C(F)F)cn3)C2=O)CC1)c1ccc(Cl)c(F)c1 [Compound 123, 4-chloro-N-[(1r,4r)-4-{3-[5-(difluoromethyl)pyridin-2-yl]-2-oxoimidazolidin-1-yl}cyclohexyl]-3-fluorobenzamide] | > 2000 |
| O=C(N[C@H]1CC[C@H](N2CCN(c3ccc(C(F)F)cn3)C2=O)CC1)c1ccc(OC(F)(F)F)cn1 [Compound 124, N-[(1r,4r)-4-{3-[5-(difluoromethyl)pyridin-2-yl]-2-oxoimidazolidin-1-yl}cyclohexyl]-5-(trifluoromethoxy)pyridine-2-carboxamide] | > 2000 |
| O=C(COc1ccc(C(F)(F)F)nc1)N[C@H]1CC[C@H](N2CCN(c3ccc(C(F)F)cn3)C2=O)CC1 [Compound 125, N-[(1r,4r)-4-{3-[5-(difluoromethyl)pyridin-2-yl]-2-oxoimidazolidin-1-yl}cyclohexyl]-2-{[6-(trifluoromethyl)pyridin-3-yl]oxy}acetamide] | 50 to 250 |
| O=C(COc1ccc(F)c(F)c1)N[C@H]1CC[C@H](N2CCN(c3ccc(C(F)F)cn3)C2=O)CC1 [Compound 126, N-[(1r,4r)-4-{3-[5-(difluoromethyl)pyridin-2-yl]-2-oxoimidazolidin-1-yl}cyclohexyl]-2-(3,4-difluorophenoxy)acetamide] | < 50 |
| O=C(COc1ccc(OC(F)(F)F)cc1)N[C@H]1CC[C@H](N2CCN(c3ccc(C(F)F)cn3)C2=O)CC1 [Compound 127, N-[(1r,4r)-4-{3-[5-(difluoromethyl)pyridin-2-yl]-2-oxoimidazolidin-1-yl}cyclohexyl]-2-[4-(trifluoromethoxy)phenoxy]acetamide] | 250 to 1000 |
| O=C(COc1ccc2c(c1)OC(F)(F)O2)N[C@H]1CC[C@H](N2CCN(c3ccc(C(F)F)cn3)C2=O)CC1 [Compound 128, 2-[(2,2-difluoro-2H-1,3-benzodioxol-5-yl)oxy]-N-[(1r,4r)-4-{3-[5-(difluoromethyl)pyridin-2-yl]-2-oxoimidazolidin-1-yl}cyclohexyl]acetamide] | 50 to 250 |
| O=C(N[C@H]1CC[C@H](N2CCN(c3ccc(C(F)F)cn3)C2=O)CC1)OCc1ccccc1 [Compound 129, benzyl [(1r,4r)-4-{3-[5-(difluoromethyl)pyridin-2-yl]-2-oxoimidazolidin-1-yl}cyclohexyl]carbamate] | > 2000 |
| O=C(COc1ccc(Cl)c(F)c1)N[C@H]1CC[C@H](N2CCN(c3ccccn3)C2=O)CC1 [Compound 130, 2-(4-chloro-3-fluorophenoxy)-N-{(1r,4r)-4-[2-oxo-3-(pyridin-2-yl)imidazolidin-1-yl]cyclohexyl}acetamide] | < 50 |
| Cc1csc(N2CCN([C@H]3CC[C@H](NC(=O)COc4ccc(Cl)c(F)c4)CC3)C2=O)n1 [Compound 131, 2-(4-chloro-3-fluorophenoxy)-N-{(1r,4r)-4-[3-(4-methyl-1,3-thiazol-2-yl)-2-oxoimidazolidin-1-yl]cyclohexyl}acetamide] | 250 to 1000 |
| O=C(COc1ccc(Cl)c(F)c1)N[C@H]1CC[C@H](N2CCN(c3ccc(C(F)F)cn3)C2=O)CC1 [Compound 133, 2-(4-chloro-3-fluorophenoxy)-N-[(1r,4r)-4-{3-[5-(difluoromethyl)pyridin-2-yl]-2-oxoimidazolidin-1-yl}cyclohexyl]acetamide] | < 50 |
| O=C(COc1ccc(Cl)c(F)c1)N[C@H]1CC[C@H](N2CCN(c3ccc4c(c3)OC(F)(F)O4)C2=O)CC1 [Compound 134, 2-(4-chloro-3-fluorophenoxy)-N-{(1r,4r)-4-[3-(2,2-difluoro-2H-1,3-benzodioxol-5-yl)-2-oxoimidazolidin-1-yl]cyclohexyl}acetamide] | < 50 |
| O=C(COc1ccc(Cl)c(F)c1)N[C@H]1CC[C@H](N2CCN(c3ccc(Cl)cn3)C2=O)CC1 [Compound 135, 2-(4-chloro-3-fluorophenoxy)-N-{(1r,4r)-4-[3-(5-chloropyridin-2-yl)-2-oxoimidazolidin-1-yl]cyclohexyl}acetamide] | < 50 |
| O=C(COc1ccc(Cl)c(F)c1)N[C@H]1CC[C@H](N2CCN(c3ccc(OC(F)(F)F)nc3)C2=O)CC1 [Compound 136, 2-(4-chloro-3-fluorophenoxy)-N-[(1r,4r)-4-{2-oxo-3-[6-(trifluoromethoxy)pyridin-3-yl]imidazolidin-1-yl}cyclohexyl]acetamide] | > 2000 |
| O=C(COc1ccc(Cl)c(F)c1)NC12CC(N3CNc4cc(F)c(F)cc4C3=O)(C1)C2 [Compound 137, 2-(4-chloro-3-fluorophenoxy)-N-[3-(6,7-difluoro-4-oxo-1,4-dihydroquinazolin-3(2H)-yl)bicyclo[1.1.1]pentan-1-yl]acetamide] | 250 to 1000 |
| O=C(COc1ccc(Cl)c(F)c1)NC12CC(n3c(=O)c4ccc(Cl)cc4n(CCO)c3=O)(C1)C2 [Compound 138, 2-(4-chloro-3-fluorophenoxy)-N-{3-[7-chloro-1-(2-hydroxyethyl)-2,4-dioxo-1,4-dihydroquinazolin-3(2H)-yl]bicyclo[1.1.1]pentan-1-yl}acetamide] | 50 to 250 |
| O=c1[nH]c2cc(Cl)ccc2c(=O)n1C12CC(NCCOc3ccc(Cl)c(F)c3)(C1)C2 [Compound 139, 7-chloro-3-(3-{[2-(4-chloro-3-fluorophenoxy)ethyl]amino}bicyclo[1.1.1]pentan-1-yl)quinazoline-2,4(1H,3H)-dione] | > 2000 |
| O=C(COc1ccc(Cl)c(F)c1)NC12CC(n3c(=O)[nH]c4cc(Cl)ccc4c3=O)(C1)C2 [Compound 140, N-[3-(7-chloro-2,4-dioxo-1,4-dihydroquinazolin-3(2H)-yl)bicyclo[1.1.1]pentan-1-yl]-2-(4-chloro-3-fluorophenoxy)acetamide] | 250 to 1000 |
| O=C(COc1ccc(Cl)c(F)c1)N[C@H]1CC[C@H](N2CCN(c3ccc(OC(F)(F)F)cn3)C2=O)CC1 [Compound 141, 2-(4-chloro-3-fluorophenoxy)-N-[(1r,4r)-4-{2-oxo-3-[5-(trifluoromethoxy)pyridin-2-yl]imidazolidin-1-yl}cyclohexyl]acetamide] | 50 to 250 |
| O=C(COc1ccc(Cl)c(F)c1)N[C@H]1CC[C@H](N2CCN(c3ccc(C(F)F)nc3)C2=O)CC1 [Compound 142, 2-(4-chloro-3-fluorophenoxy)-N-[(1r,4r)-4-{3-[6-(difluoromethyl)pyridin-3-yl]-2-oxoimidazolidin-1-yl}cyclohexyl]acetamide] | < 50 |
| O=C(COc1ccc(Cl)c(F)c1)N[C@H]1CC[C@H](N2CCN(c3ccc(C(F)(F)F)nc3)C2=O)CC1 [Compound 143, 2-(4-chloro-3-fluorophenoxy)-N-[(1r,4r)-4-{2-oxo-3-[6-(trifluoromethyl)pyridin-3-yl]imidazolidin-1-yl}cyclohexyl]acetamide] | < 50 |
| O=C(COc1ccc(Cl)c(F)c1)N[C@H]1CC[C@H](N2CCN(c3ccc(Cl)cc3)C2=O)CC1 [Compound 144, 2-(4-chloro-3-fluorophenoxy)-N-{(1r,4r)-4-[3-(4-chlorophenyl)-2-oxoimidazolidin-1-yl]cyclohexyl}acetamide] | < 50 |
| O=C(COc1ccc(Cl)c(F)c1)NC12CC(N3CCN(c4ccc(Cl)cn4)C3=O)(C1)C2 [Compound 145, 2-(4-chloro-3-fluorophenoxy)-N-{3-[3-(5-chloropyridin-2-yl)-2-oxoimidazolidin-1-yl]bicyclo[1.1.1]pentan-1-yl}acetamide] | < 50 |
| O=C(COc1ccc(Cl)c(F)c1)NC12CCC(N3CCN(c4ccc(Cl)c(F)c4)C3=O)(CC1)CC2O (stereo not shown) [Compound 146, 2-(4-chloro-3-fluorophenoxy)-N-{4-[3-(4-chloro-3-fluorophenyl)-2-oxoimidazolidin-1-yl]-2-hydroxybicyclo[2.2.2]octan-1-yl}acetamide] | < 50 |
| O=C(COc1ccc(Cl)c(F)c1)NC12CC(N3CCN(c4ccc(C(F)F)cn4)C3=O)(C1)C2 [Compound 147, 2-(4-chloro-3-fluorophenoxy)-N-(3-{3-[5-(difluoromethyl)pyridin-2-yl]-2-oxoimidazolidin-1-yl}bicyclo[1.1.1]pentan-1-yl)acetamide] | < 50 |
| O=C(COc1ccc(Cl)c(F)c1)NC12CC(N3C(=O)OC(c4ccc(F)cc4)C3=O)(C1)C2 (stereo not shown) [Compound 158, 2-(4-chloro-3-fluorophenoxy)-N-{3-[5-(4-fluorophenyl)-2,4-dioxo-,3-oxazolidin-3-yl]bicyclo[1.1.1]pentan-1-yl}acetamide] | 1000 to 2000 |
| O=C(COc1ccc(Cl)c(F)c1)NC12CC(N3CC(c4ccc(Cl)c(F)c4)CC3=O)(C1)C2 (stereo not shown) [Compound 159, 2-(4-chloro-3-fluorophenoxy)-N-{3-[4-(4-chloro-3-fluorophenyl)-2-oxopyrrolidin-1-yl]bicyclo[1.1.1]pentan-1-yl}acetamide] | < 50 |
| O=C(COc1ccc(Cl)c(F)c1)NC12CC(n3ccn(-c4ccc(Cl)cc4)c3=O)(C1)C2 [Compound 160, 2-(4-chloro-3-fluorophenoxy)-N-{3-[3-(4-chlorophenyl)-2-oxo-2,3-dihydro-1H-imidazol-1-yl]bicyclo[1.1.1]pentan-1-yl}acetamide] | < 50 |
| O=C(COc1ccc(Cl)c(F)c1)NC12CCC(N3CC(c4ccc(Cl)cc4)OC3=O)(CC1)CC2O (stereo not shown) [Compound 162, 2-(4-chloro-3-fluorophenoxy)-N-{4-[5-(4-chlorophenyl)-2-oxo-1,3-oxazolidin-3-yl]-2-hydroxybicyclo[2.2.2]octan-1-yl}acetamide] | 50 to 250 |
